Laboratory results from patent US7491794B2, “Macrocyclic compounds as inhibitors of viral replication” (Intermune, Inc., priority 2003, dated 2009).

target: T1, NS3-NS4 protease (Hepatitis C virus genotype 1a, UniProt P27958); test: NS3-NS4 protease assay / NS3 inhibition assay, Section D; format: biochemical
T1 construct: Recombinant E. coli or Baculovirus full-length NS3 was diluted to 3.33 μM with assay buffer; made in house; host or cells: E. coli or baculovirus (BV) system
Description: NS3-NS4 Protease Assay NS3 complex formation with NS4A-2.
Recombinant E. coli or Baculovirus full-length NS3 was diluted to 3.33 μM with assay buffer and transferred material to an eppendorf tube and place in water bath in 4° C. refrigerator. The appropriate amount of NS4A-2 to 8.3 mM in assay buffer was added to equal the volume of NS3 in step 2.1.1 (conversion factor −3.8 mg/272 μL assay buffer). The material was transferred to an eppendorf tube and place in water bath in 4° C. refrigerator.
After equilibration to 4° C., equal volumes of NS3 and NS4A-2 solutions were combined in an eppendorf tube, mix gently with a manual pipettor, and incubate mixture for 15 minutes in the 4° C. water bath. Final concentrations in the mixture are 1.67 μM NS3, 4.15 mM NS4A-2 (2485-fold molar excess NS4A-2).
After 15 minutes at 4° C., the NS3/NS4A-2 eppendorf tube was removed and placed in a room temperature water bath for 10 minutes. NS3/NS4A-2 was alliquoted at appropriate volumes and store at −80° C. (E. coli NS3 run at 2 nM in assay, aliquot at 25 μL. BV NS3 run at 3 nM in assay, aliquot at 30 μL).
Sample compounds were dissolved to 10 mM in DMSO then diluted to 2.5 mM (1:4) in DMSO.
The E. coli. NS3/NS4A-2 was diluted to 4 nM NS3 (1:417.5 of 1.67 μM stock−18 μL 1.67 μM stock+7497 μL assay buffer).
The BV NS3/NS4A-2 was diluted to 6 nM NS3 (1:278.3 of 1.67 μM stock−24 μL 1.67 μM stock+6655 μL assay buffer).
Using the manual multichannel pipettor, careful not to introduce bubbles into the plate, add 50 μL assay buffer to wells A01-H01 of a black Costar 96-well polypropylene storage plate.
Using the manual multichannel pipettor, careful not to introduce bubbles into the plate, add 50 μL of diluted NS3/NS4A-2 from step 2.2.6 to wells A02-H12 of plate in step 2.2.7.
Using the manual multichannel pipettor, careful not to introduce bubbles into the plate, transfer 25 μL of the wells in drug dilution plate in step 2.2.5 to corresponding wells in assay plate in step 2.2.8. Change tips on multichannel pipettor for each row of compounds transferred.
Using the manual multichannel pipettor, careful not to introduce bubbles into the plate, mix the wells from the assay plate in step 2.2.9 by aspirating and dispensing 35 μL of the 75 μL in each well five times. Change tips on multichannel pipettor for each row of wells mixed.
Cover plate with a polystyrene plate lid and pre-incubate the plate from step 2.2.10 containing NS3 protease and sample compounds 10 minutes at room temperature.
While plate from step 2.2.11 is pre-incubating, dilute RETS1 substrate in a 15 mL polypropylene centrifuge tube.
Dilute RETS1 substrate to 8 μM (1:80.75 of 646 μM stock−65 μL 646 μM stock+5184 μL assay buffer).
After the plate in step is done pre-incubating, and using the manual multichannel, add 25 μL of substrate to all wells on the plate. Quickly mix the plate as in step 2.2.10, mixing 65 μL of the 100 μL in the wells.
Read the plate in kinetic mode on the Molecular Devices SpectraMax Gemini XS plate reader. Reader settings: Read time: 30 minutes, Interval: 36 seconds, Reads: 51, Excitation k: 335 nm, Emission k: 495 nm, cutoff: 475 nm, Automix: off, Calibrate: once, PMT: high, Reads/well: 6, Vmax pts: 21 or 28/51 depending on length of linearity of reaction.
IC50s are determined using a four parameter curve fit equation, and converted to Ki's using the following Km's:
where Ki=IC50/(1+[S]/Km))

T1 sequence (P27958 1027-1657): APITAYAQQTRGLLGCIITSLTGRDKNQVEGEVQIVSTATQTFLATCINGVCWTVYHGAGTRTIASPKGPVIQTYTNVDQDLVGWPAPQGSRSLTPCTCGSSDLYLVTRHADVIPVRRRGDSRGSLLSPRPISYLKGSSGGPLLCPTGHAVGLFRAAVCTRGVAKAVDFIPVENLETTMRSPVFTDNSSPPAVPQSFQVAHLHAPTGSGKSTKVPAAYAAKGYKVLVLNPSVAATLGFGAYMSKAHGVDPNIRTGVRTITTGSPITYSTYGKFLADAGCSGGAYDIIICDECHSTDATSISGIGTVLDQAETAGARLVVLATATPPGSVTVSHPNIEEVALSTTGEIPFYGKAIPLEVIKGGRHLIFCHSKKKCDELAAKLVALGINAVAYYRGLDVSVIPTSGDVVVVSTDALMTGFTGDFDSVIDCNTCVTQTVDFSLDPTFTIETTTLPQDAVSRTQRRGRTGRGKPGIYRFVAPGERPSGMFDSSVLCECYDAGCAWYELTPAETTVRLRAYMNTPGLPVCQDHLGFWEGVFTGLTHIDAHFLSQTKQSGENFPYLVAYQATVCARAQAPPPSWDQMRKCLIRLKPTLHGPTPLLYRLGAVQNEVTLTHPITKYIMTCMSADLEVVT

IC50, < 100 nM:
CC(C)(C)OC(=O)N[C@H]1CCCCC/C=C\[C@@H]2C[C@@]2(C(=O)NS(=O)(=O)C2CC2)NC(=O)[C@@H]2C[C@@H](NC(=O)c3ccccc3)CN2C1=O [Example 2]
CCc1ccc(C(=O)N[C@@H]2C[C@H]3C(=O)N[C@]4(C(=O)NS(=O)(=O)C5CC5)C[C@H]4/C=C\CCCCC[C@H](NC(=O)OC(C)(C)C)C(=O)N3C2)cc1 [Example 3]
CC(C)(C)OC(=O)N[C@H]1CCCCC/C=C\[C@@H]2C[C@@]2(C(=O)NS(=O)(=O)C2CC2)NC(=O)[C@@H]2C[C@@H](NC(=O)c3ccc(Cl)cc3)CN2C1=O [Example 4]
CC(C)(C)OC(=O)N[C@H]1CCCCC/C=C\[C@@H]2C[C@@]2(C(=O)NS(=O)(=O)C2CC2)NC(=O)[C@@H]2C[C@@H](NC(=O)c3c(Cl)cc(Cl)cc3Cl)CN2C1=O [Example 5]
COc1ccc(C(=O)N[C@@H]2C[C@H]3C(=O)N[C@]4(C(=O)NS(=O)(=O)C5CC5)C[C@H]4/C=C\CCCCC[C@H](NC(=O)OC(C)(C)C)C(=O)N3C2)cc1 [Example 6]
COc1cccc(C(=O)N[C@@H]2C[C@H]3C(=O)N[C@]4(C(=O)NS(=O)(=O)C5CC5)C[C@H]4/C=C\CCCCC[C@H](NC(=O)OC(C)(C)C)C(=O)N3C2)c1 [Example 7]
COc1ccc(C(=O)N[C@@H]2C[C@H]3C(=O)N[C@]4(C(=O)NS(=O)(=O)C5CC5)C[C@H]4/C=C\CCCCC[C@H](NC(=O)OC(C)(C)C)C(=O)N3C2)cc1C(F)(F)F [Example 8]
CC(C)(C)OC(=O)N[C@H]1CCCCC/C=C\[C@@H]2C[C@@]2(C(=O)NS(=O)(=O)C2CC2)NC(=O)[C@@H]2C[C@@H](NC(=O)c3ccc(C#N)cc3)CN2C1=O [Example 9]
CC(C)(C)OC(=O)N[C@H]1CCCCC/C=C\[C@@H]2C[C@@]2(C(=O)NS(=O)(=O)C2CC2)NC(=O)[C@@H]2C[C@@H](NC(=O)c3cccc(C#N)c3)CN2C1=O [Example 10]
CN(C)c1ccc(C(=O)N[C@@H]2C[C@H]3C(=O)N[C@]4(C(=O)NS(=O)(=O)C5CC5)C[C@H]4/C=C\CCCCC[C@H](NC(=O)OC(C)(C)C)C(=O)N3C2)cc1 [Example 11]
CC(C)Nc1nc(C(=O)N[C@@H]2C[C@H]3C(=O)N[C@]4(C(=O)NS(=O)(=O)C5CC5)C[C@H]4/C=C\CCCCC[C@H](NC(=O)OC(C)(C)C)C(=O)N3C2)cs1 [Example 12]
CN(C)c1ccc(C(=O)N[C@@H]2C[C@H]3C(=O)N[C@]4(C(=O)NS(=O)(=O)C5CC5)C[C@H]4/C=C\CCCCC[C@H](NC(=O)OC(C)(C)C)C(=O)N3C2)cn1 [Example 13]
CC(C)(C)OC(=O)N[C@H]1CCCCC/C=C\[C@@H]2C[C@@]2(C(=O)NS(=O)(=O)C2CC2)NC(=O)[C@@H]2C[C@@H](NC(=O)c3ccc(N4CCOCC4)nc3)CN2C1=O [Example 14]
CC(C)(C)OC(=O)N[C@H]1CCCCC/C=C\[C@@H]2C[C@@]2(C(=O)NS(=O)(=O)C2CC2)NC(=O)[C@@H]2C[C@@H](NC(=O)c3ccc(F)c(F)c3)CN2C1=O [Example 15]
CC(C)(C)OC(=O)N[C@H]1CCCCC/C=C\[C@@H]2C[C@@]2(C(=O)NS(=O)(=O)C2CC2)NC(=O)[C@@H]2C[C@@H](NC(=O)c3ccc(Cl)c(Cl)c3)CN2C1=O [Example 16]
CC(C)(C)OC(=O)N[C@H]1CCCCC/C=C\[C@@H]2C[C@@]2(C(=O)NS(=O)(=O)C2CC2)NC(=O)[C@@H]2C[C@@H](NC(=O)c3ccc(S(N)(=O)=O)cc3)CN2C1=O [Example 17]
CC(C)(C)OC(=O)N[C@H]1CCCCC/C=C\[C@@H]2C[C@@]2(C(=O)NS(=O)(=O)C2CC2)NC(=O)[C@@H]2C[C@@H](NC(=O)c3ccc(C(N)=O)cc3)CN2C1=O [Example 18]
CC(C)(C)OC(=O)N[C@H]1CCCCC/C=C\[C@@H]2C[C@@]2(C(=O)NS(=O)(=O)C2CC2)NC(=O)[C@@H]2C[C@@H](NC(=O)c3ccc(-c4ccccc4)cc3)CN2C1=O [Example 19]
CC(C)(C)OC(=O)N[C@H]1CCCCC/C=C\[C@@H]2C[C@@]2(C(=O)NS(=O)(=O)C2CC2)NC(=O)[C@@H]2C[C@@H](NC(=O)c3ccc(-n4ccnc4)cc3)CN2C1=O [Example 20]
CC(C)(C)OC(=O)N[C@H]1CCCCC/C=C\[C@@H]2C[C@@]2(C(=O)NS(=O)(=O)C2CC2)NC(=O)[C@@H]2C[C@@H](NC(=O)c3cnn(-c4ccccc4)c3C(F)(F)F)CN2C1=O [Example 21]
CC(C)(C)OC(=O)N[C@H]1CCCCC/C=C\[C@@H]2C[C@@]2(C(=O)NS(=O)(=O)C2CC2)NC(=O)[C@@H]2C[C@@H](NC(=O)c3ccc(-c4ccc(Cl)cc4)o3)CN2C1=O [Example 22]
CC(C)(C)OC(=O)N[C@H]1CCCCC/C=C\[C@@H]2C[C@@]2(C(=O)NS(=O)(=O)C2CC2)NC(=O)[C@@H]2C[C@@H](NC(=O)c3csc(-c4ccc(Cl)cc4)c3)CN2C1=O [Example 23]
CC(C)(C)OC(=O)N[C@H]1CCCCC/C=C\[C@@H]2C[C@@]2(C(=O)NS(=O)(=O)C2CC2)NC(=O)[C@@H]2C[C@@H](NC(=O)c3csc(-c4ccccc4)n3)CN2C1=O [Example 24]
CC(C)(C)OC(=O)N[C@H]1CCCCC/C=C\[C@@H]2C[C@@]2(C(=O)NS(=O)(=O)C2CC2)NC(=O)[C@@H]2C[C@@H](NC(=O)c3csc(-c4ccccc4Cl)n3)CN2C1=O [Example 25]
CC(C)(C)OC(=O)N[C@H]1CCCCC/C=C\[C@@H]2C[C@@]2(C(=O)NS(=O)(=O)C2CC2)NC(=O)[C@@H]2C[C@@H](NC(=O)c3csc(-c4ccc(Cl)cc4)n3)CN2C1=O [Example 26]
CC(C)(C)OC(=O)N[C@H]1CCCCC/C=C\[C@@H]2C[C@@]2(C(=O)NS(=O)(=O)C2CC2)NC(=O)[C@@H]2C[C@@H](NC(=O)c3ccc4ccccc4c3)CN2C1=O [Example 27]
CC(C)(C)OC(=O)N[C@H]1CCCCC/C=C\[C@@H]2C[C@@]2(C(=O)NS(=O)(=O)C2CC2)NC(=O)[C@@H]2C[C@@H](NC(=O)c3ccc4ncccc4c3)CN2C1=O [Example 28]
CC(C)(C)OC(=O)N[C@H]1CCCCC/C=C\[C@@H]2C[C@@]2(C(=O)NS(=O)(=O)C2CC2)NC(=O)[C@@H]2C[C@@H](NC(=O)c3cnc4ccccc4c3)CN2C1=O [Example 29]
CC(C)(C)OC(=O)N[C@H]1CCCCC/C=C\[C@@H]2C[C@@]2(C(=O)NS(=O)(=O)C2CC2)NC(=O)[C@@H]2C[C@@H](NC(=O)c3cnc4ccccc4n3)CN2C1=O [Example 30]
CC(C)(C)OC(=O)N[C@H]1CCCCC/C=C\[C@@H]2C[C@@]2(C(=O)NS(=O)(=O)C2CC2)NC(=O)[C@@H]2C[C@@H](NC(=O)c3cc4ccccc4[nH]3)CN2C1=O [Example 31]
CC(C)(C)OC(=O)N[C@H]1CCCCC/C=C\[C@@H]2C[C@@]2(C(=O)NS(=O)(=O)C2CC2)NC(=O)[C@@H]2C[C@@H](NC(=O)c3cc4cc(Cl)ccc4[nH]3)CN2C1=O [Example 32]
COc1ccc2[nH]c(C(=O)N[C@@H]3C[C@H]4C(=O)N[C@]5(C(=O)NS(=O)(=O)C6CC6)C[C@H]5/C=C\CCCCC[C@H](NC(=O)OC(C)(C)C)C(=O)N4C3)cc2c1 [Example 33]
CC(C)(C)OC(=O)N[C@H]1CCCCC/C=C\[C@@H]2C[C@@]2(C(=O)NS(=O)(=O)C2CC2)NC(=O)[C@@H]2C[C@@H](NC(=O)c3cc4cc(F)ccc4[nH]3)CN2C1=O [Example 34]
Cn1c(C(=O)N[C@@H]2C[C@H]3C(=O)N[C@]4(C(=O)NS(=O)(=O)C5CC5)C[C@H]4/C=C\CCCCC[C@H](NC(=O)OC(C)(C)C)C(=O)N3C2)cc2ccccc21 [Example 35]
